Read-outs that look alike come from different tables or passages of the source.
Experiments:
[1] = as measured using the HCl salt; cited from earlier work
[2] = cited from earlier work
[3] = Subject-reported duration of euphoria and of vasodilation (drop in systolic blood pressure, sphygmomanometer); format: in vivo, human; details: 600 mg oral capsule
Method: (§1) Solid dose capsules (size “00”, gelatin) were prepared containing either 600 mg of 2-phenylethylamine nitrate or equimolar quantities of an admixture of 2-phenylethylamine HCl and sodium nitrate (NaNO3). A placebo filled with an inert substance (200 mesh guar gum) was also prepared. The subject was given a single capsule containing 2-phenylethylamine nitrate, an admixture of 2-phenylethylamine HCl and NaNO3, or the placebo.
The subject estimated that the effect of the 2-phenylethylamine nitrate lasted substantially longer than the effect of the admixture. For example, the 2-phenylethylamine nitrate produced a sense of euphoria that typically lasted 50% longer than that experienced with the admixture.

[4] = Length of time the subject maintained a 5.5 mph pace on an elliptical trainer (athletic performance); format: in vivo, human; details: single oral capsule, 600 mg 2-phenylethylamine nitrate or equimolar admixture
Method: as §1
After oral administration of the compound, the subject's ability to maintain a speed of about 5.5 mph on an elliptical trainer was measured. The length of time was recorded before the subject became fatigued and was no longer able to maintain this pace (see Table 1). Athletic performance was measured at times soon after administration of the compound before the subject had engaged in significant physical activity that day (at about 9:30 am each day). The subject was blinded to the identity of the capsules.

[5] = Sexual performance of the subject (penile erectile genesis and maintainability); format: in vivo, human; details: single oral capsule
Method: Solid dose capsules were prepared as described in Example 3. The subject was given a single capsule containing 2-phenylethylamine nitrate, an admixture of 2-phenylethylamine HCl and NaNO3, or a placebo.
Sexual performance was evaluated in the subject by the relative length of time and number of times they were able to maintain an erection and engage in sexual intercourse (i.e., penile erectile genesis and maintainability) with their partner during a given period.

[6] = Tolerability of daily oral doses; format: in vivo
[7] = Clinical observation of onset and duration of athletic performance-enhancing effects after oral dose; format: in vivo

Row | SMILES | pKb [1] | half-life ([2]; in vivo) | Increase of brain levels when taking an MAO inhibitor ([2]; initial 2-phenylethylamine brain concentration low) | Increase of brain levels when taking an MAO inhibitor ([2]; initial concentration high) | Duration of vasodilation versus the admixture ([3]; measured by drop in systolic blood pressure) | Sense of euphoria: duration longer than that experienced with the admixture ([3]; subject's estimate, versus admixture) | Percent Improvement Compared to Placebo [4] | Time (Minutes) that the subject maintained a 5.5 mph pace on an elliptical ([4]; average of several occasions) | Sexual performance after administration ([5]; compared with admixture or placebo) | Reduction of refractory time between erections ([5]; subject, self-reported) | Daily oral dose tolerated without significant side effects [6] | Time to clinically observable athletic performance-enhancing effects after ingestion ([7]; single dose of 0.100 grams to 0.600 grams) | Time for which athletic performance-enhancing effects are clinically observable ([7]; single, oral dose as low as 0.200 grams)
1 | NCCc1ccccc1 [2-phenylethylamine] | 4.17 | 5 to 10 min | ~1000 fold | 3-4 times | – | – | – | – | – | – | – | – | –
2 | NCCc1ccccc1.O=[N+]([O-])O [2-Phenylethylamine Nitrate, 2-phenylethylamine nitrate] | – | – | – | – | at least twice as long | 50% | 10% | 66 min | surprising enhancement in their sexual performance | ~35% | ≤ 3.00 grams | ≤ 10 min | ≤ 6 h

— patent US9526793B1, “Salts of phenylethylamines and inorganic acids and methods of use thereof” (priority 2013, dated 2016)
